The subject of one test is Candida albicans. Put plainly: Biofilm formation in a model of in vivo conditions (pellet release in pH 3.71 buffer). The test is classed as cell-based. The protocol: (§1) Biofilm was measured in liquid culture as described [K. Scherz et al., G3 (Bethesda), 2014, 4, 1671-1680. I. Serrano-Fujarte et al. Biomed Res Int. 2015; 2015:783639] with some modifications. Prior the biofilm assay, yeast cultures were grown in liquid YPD medium for 24 hours until stationary phase (OD600 11-17)^2, cells were then pelleted by centrifugation (1699 g), washed with sterile water and cells were further inoculated into test biofilm medium (YNB (yeast nitrogen base without amino acids and ammonium sulphate) supplemented with 0.5% ammonium sulphate, 0.2% glucose and 100 mM L-proline pH7.0) at final concentration 0.2 OD600/ml and incubated in 96-well flat-bottom polystyrene microtiter plates (Sigma Aldrich, Corning® Costar® culture plates, CLS3596-50EA) for 72 hours at 37° C. thermostat. At defined time points crystal violet (HT901-8FOZ; Sigma Aldrich) was added to the media at the final concentration 0.05%, in addition total biomass was measured. After 24 hours of cells staining, plate wells were washed four times with 200 μl of water to remove planktonic cells, biofilms were then dried and dissolved in 200 μl of 96% ethanol. Total biomass and crystal violet biofilm staining measurements were performed at OD560 with FLUOstar OPTIMA plate reader, BMG LABTECH. Crystal violet biofilm measurements were normalized to the total biomass (OD560Biofilm/OD560 total biomass).
(§2) Pellet of lactonized/oligomerized gluconic acid (1.3 g, duplicate samples) were added to buffer solution of pH 3.71 (0.5 M KH2PO/ortho phosphoric acid, 10 mL) at 37° C. Samples (4 mL) were taken every hour (1, 2, 3, 4, 5, 6 and 24 h) and new buffer solution (4 mL) was added. The samples were diluted 50 times with biofilm medium (vide supra) and the amount of biofilm formation was measured after 24 h as described above. […]
(§3) Samples (4 mL) were taken at fixed time points (1, 2, 3, 4, 5, 6 and 24 h) and new buffer solution (4 mL) was added. The samples were diluted 50 times with biofilm medium (vide supra) and the amount of biofilm formation was measured after 24 h as described above. […]

Another test has as its system Candida glabrata. The description is as above. It counts as cell-based. The following applies: pellet 2.5 g in pH 3.71 buffer at 37° C, sample after 1 h, diluted 50 times, biofilm after 24 h. The method, then:
as §1, §2, §3

The subject of test [1] is C. albicans. The experiment in a line: Viability of mature biofilm, XTT assay. The following applies: 48 h of incubation with GDA. It counts as cell-based, Candida albicans. The protocol:
(§4) XXT is a colorimetric assay for quantification of cellular viability, and cytotoxicity. The assay is based on the cleavage of the tetrazolium salt XTT, a conversion that only occurs in viable cells. […] Then the cells were washed 2 times with PBS, after which the XTT reaction mixture was added. After 30 min the optical density measured at 485 nm.

The test system of the next test is C. glabrata. Put plainly: Viability of mature biofilm, XTT assay. It counts as cell-based, Candida glabrata. The following applies: 24 h of incubation with GDA. The method, then:
as §4

Test [2] concerns C. albicans. Put plainly: Microfluidics study of biofilm development (cell morphology). The test is classed as cell-based, Candida albicans. As to conditions: 1 h hydrolysate of 2.5 g pellet diluted 50 times, after 5 h. The protocol:
To monitor the C. albicans cell morphology we studied the biofilm development also using microscopy and microfluidics. After the yeast cells were inoculated, hyphae started to form within first hour of incubation in the biofilm medium (YNB supplemented with 100 mM proline and 0.2% glucose, pH7.0). […] A sample was taken after 1 h and diluted 50 times with biofilm medium and added to C. albicans.

In a further test the test system is Escherichia coli K12. The experiment in a line: E. coli biofilm study in M9 medium (crystal violet). The test is classed as cell-based. The protocol:
The bacterial strain Escherichia coli K12 was used for the biofilm study. This strain was maintained on LB medium at 37° C. The biofilm was studied in synthetic medium M9 (×1 M9 minimal salts (Sigma M6030), 2 mM MgSO4, 0.1 mM CaCl2, and 0.2% glucose), which contained either phosphate buffer, citric acid, lactic acid, gluconic acid or glucono-O-lactone to obtain media with different pH (2.6-6.6).
The overnight culture of E. coli K12 (OD600˜5.0) was washed with sterile water and inoculated to the final concentration 0.2 OD/ml of M9 medium with different pH of different compounds. The biofilm development was studied in 96-well flat-bottom polystyrene microtiter plates (Sigma Aldrich, Corning® Costar® culture plates, CLS3596-50EA). The biofilm was stained with crystal violet.

Test [3] relates to Gardnerella vaginalis CCUG 3717. Put plainly: MIC microdilution test. As to conditions: CAMHB, 48 hours, 5% CO2. It counts as cell-based. The protocol: (§5) Gardnerella vaginalis, Lactobacillus iners, and Lactobacillus crispatus were recovered by CCUG (Culture Collection of University of Gothenburg). Subculture plates were made for G. vaginalis on Chocolate-GL plates and Lactobacillus spp. on M.R.S. agar plates at 5% CO2, 36° C. The inoculums were prepared from the subculture plates. Colonies were inoculated to culture tubes with 5 ml test medium and vortexed 2 min with about 10 glass beads a 3 mm in diameter. Colonies were taken until the turbidity of the solution was OD475 of 0.4-0.5. The bacterial solutions were checked in light microscopy at ×40 with phase contrast to make sure that the cells were dispersed. Each bacterial suspension was diluted in its test medium, 1:100, to equal 1-3×10^6 CFU/ml. The microbial solutions were stored at 20° C. during the preparation of the inoculums
(§6) The test substance solution was prepared aseptically at 1 g/ml in sterile H2O. The first row of wells was filled with 100 μl substance and then 2 fold dilutions were done vertically in 8 steps.
(§7) Next, 100 μl microorganisms were added and the plates were gently shaken at 500 rpm for 30 seconds before incubation at 35° C. and 90% RH in the CO2 incubator set at 5% CO2. After 48 and 72 hours of incubation, the OD was measured and ocular assessments were done. The pH was also measured for all dilutions, n=1, pH=6.8-7.1

Test [4] concerns Lactobacillus crispatus CCUG 44128. Put plainly: MIC microdilution test. It counts as cell-based. As to conditions: IsoS-M.R.S., 48 hours, 5% CO2. The method, then:
as §5, §6, §7

Each structure is given as a SMILES string. Some results are limits rather than exact numbers.

`O=C1O[C@H](CO)[C@@H](O)[C@H](O)[C@H]1O` [GDA, glucono-δ-lactone]: the “Normalized biofilm (% of control), 1 h” value in the test with Candida albicans (pellet 2.5 g in pH 3.71 buffer at 37° C, sample after 1 h, diluted 50 times, biofilm after 24 h) is on record as 8.3 % of control; in the test with Candida glabrata it was 71 % of control. For the same compound, in the test on Candida albicans (pellet in pH 3.71 buffer, samples 1-24 h diluted 50 times), the “duration of preventive effect on biofilm formation from pellet hydrolysis” value is at least 24 h. Also, the “decrease in viability of mature biofilm (XTT)” value in the test with C. albicans [1] is “clearly seen”; in the test with C. glabrata, “strong decrease in viability”. In addition, in the test on C. albicans [2], the cell morphology entry is on record as “most treated cells were planctonic”. Besides, the “effect on growth (biomass)” value in the test on Escherichia coli K12 (M9 medium, 24-48 hours) is on record as “inhibiting effect on the growth”. For the same compound, the “decrease of biofilm formation” value with Escherichia coli K12 (pH 2.6, 24 h) was found to be 14.2 times; in the test on Escherichia coli K12 (pH 2.6, 48 h) it was 30 times. Moreover, the figures for the “MIC (g/ml)” value in test [3] and in test [4] were 0.001 g/ml and 0.0078 g/ml, respectively.

Source of the values: US12226396B2, “Gluconic acid derivatives for use in the treatment and/or prevention of microbial infections” (GEDEA BIOTECH AB, priority 2017, dated 2025).
